Measured values reported in US20240010590A1 (priority 2020, published 2024).

How the values were obtained:
BVDV [1] = experiment: Single-detergent treatment of buffer containing HSA, BVDV inactivation; assay type: cell-based, bovine viral diarrhea virus; conditions: 14°C±1°C; for inactivation kinetics compared with Triton X-100: FIG. 4A, single detergent 0.09%-0.11%; for virus reduction factor (RF): single detergent 0.1%±0.01%, within 5 minutes
BVDV [2] = experiment: Single-detergent treatment of IVIG-containing liquid, BVDV inactivation; assay type: cell-based, bovine viral diarrhea virus; conditions: single detergent 0.1%±0.01%, 17°C±1°C, within 10 minutes
X-MuLV = experiment: S/D treatment of HSA-containing liquid, X-MuLV inactivation; assay type: cell-based, xenotropic murine leukemia virus; conditions: S/D mixture with PS80 and TnBP, 0.1% detergent
Experimental: FIG. 2: Virus inactivation efficiency of low concentrations of 4-tert-octylbenzyl alcohol polyethoxylate in S/D treatment of human serum albumin (HSA)-containing liquid at 1° C.±1° C. A three-component mixture was used to give final concentrations of 0.08%-0.1% 4-tert-octylbenzyl alcohol polyethoxylate, 0.02%-0.03% Polysorbate 80, 0.02%-0.03% TnBP (side-by-side comparison with same concentration of Triton X-100). Virus inactivation over time is indicated by the virus reduction factor (RF) for two runs with X-MuLV (A and B, respectively). Virus inactivation of S/D treatment using 4-tert-octylbenzyl alcohol polyethoxylate was compared to virus inactivation of S/D treatment using Triton X-100 (“TX-100”). Filled symbols show values with remaining infectivity, non-filled symbols show reduction factors below the limit of detection.
FIG. 3: Virus inactivation efficiency of low concentrations of 4-tert-octylbenzyl alcohol polyethoxylate in S/D treatment of HSA-containing liquid at 19° C.±1° C. A three-component mixture was used to give final concentrations of 0.08%-0.1% 4-tert-octylbenzyl alcohol polyethoxylate, 0.02%-0.03% Polysorbate 80, 0.02%-0.03% TnBP (side-by-side comparison with same concentration of Triton X-100). Virus inactivation over time is indicated by the virus reduction factor (RF) for two runs with X-MuLV (A and B, respectively). Virus inactivation of S/D treatment using 4-tert-octylbenzyl alcohol polyethoxylate was compared to virus inactivation of S/D treatment using Triton X-100 (“TX-100”). Filled symbols show values with remaining infectivity, non-filled symbols show reduction factors below the limit of detection.
The experiments were performed as described for Example 3 of WO 2019/086463. However, for the S/D treatment an S/D mixture comprising 4-tert-octylbenzyl alcohol polyethoxylate was tested and compared to an S/D mixture comprising Triton X-100. The composition of the S/D mixture comprising Triton X-100 was prepared as described in Example 3 of WO 2019/086463. […]

PRV = assay type: cell-based, pseudorabies virus; conditions: IVIG-containing liquid, 17°C±1°C
BVDV [3] = experiment: Single-detergent treatment of pdFVIII-containing liquid, BVDV inactivation; assay type: cell-based, bovine viral diarrhea virus; conditions: single detergent 0.1%±0.01%, 23°C±1°C, within 5 minutes

Substance	inactivation kinetics compared with Triton X-100 (BVDV [1])	virus reduction factor (RF) (BVDV [1])	virus reduction factor (RF) (BVDV [2])	virus reduction factor (RF) (X-MuLV; 1°C±1°C, within 10 minutes)	virus reduction factor (RF) (X-MuLV; 19°C±1°C, within 10 minutes)	virus reduction factor (RF) (X-MuLV; 19°C±1°C, within 30 min)	inactivation kinetics compared with Triton X-100 (PRV; FIG. 1A, S/D treatment, 0.04%-0.06% detergent)	virus reduction factor (RF) (PRV; S/D mixture with PS80 and TnBP, 0.05% w/w detergent, within 1-2 minutes)	virus reduction factor (RF) (BVDV [3])
4-tert-octylbenzyl alcohol polyethoxylate	same inactivation kinetics as Triton X-100	around 5	around 5	over 2	over 2	around 4	identical inactivation kinetics	around 4	around 5
n-hexadecyl alcohol polyethoxylate [Brij C10]		around 5							
4-tert-octylcyclohexyl alcohol polyethoxylate [Triton X-100 reduced]	same inactivation kinetics as Triton X-100	around 5	around 5						around 5
4-(1,1,3,3-tetramethylbutyl)phenol, ethoxylated [Triton X-100]		around 5	around 5						around 5
